The source of these data is US6989435B2, “Compounds and methods to inhibit or augment an inflammatory response” (Cambridge University Technical Services Ltd., priority 1997, dated 2006).

Marks after values point to notes of the source that are not given here. Positions of bridges follow the written chain, without caps; N, C: chain ends. Non-standard residues stand in square brackets, D forms with d. Residues, ends and D or L forms follow the SMILES beside them. No end group written: not given here.

In assay [1] the target is T1, Duffy Antigen Receptor for Chemokines (DARC) (Homo sapiens, UniProt Q16570).
T1 sequence (Q16570 1-336): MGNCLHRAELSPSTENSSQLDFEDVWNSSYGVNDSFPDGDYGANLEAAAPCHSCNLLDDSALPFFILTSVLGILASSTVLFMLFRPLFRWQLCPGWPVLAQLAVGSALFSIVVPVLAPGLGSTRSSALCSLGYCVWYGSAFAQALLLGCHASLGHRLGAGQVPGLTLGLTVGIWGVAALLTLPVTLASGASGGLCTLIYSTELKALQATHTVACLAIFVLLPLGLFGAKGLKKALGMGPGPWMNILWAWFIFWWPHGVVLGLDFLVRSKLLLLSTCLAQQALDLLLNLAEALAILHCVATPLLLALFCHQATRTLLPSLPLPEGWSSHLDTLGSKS
The assay is described as follows: DARC binding: competition with 125I-labeled MCP-1 on red blood cells. Particulars: for DUFFY SELECTIVITY: estimated ka for binding to red blood cells divided by average inhibitory ED50 versus each of the chemokines.

Assay [2] concerns chemokine-induced THP-1 migration (MCP-1, MIP1α, IL8, SDF1α). Briefly: Trans-well THP-1 migration assay, across the chemokines tested. The assay is classed as cell-based, human. Conditions: for CC SPECIFICITY: Table 7, average inhibitory ED50 versus SDF1 and IL8 divided by average inhibitory ED50 versus MCP-1 and MIP1α; for selectivity ratio (CC versus CXC chemokines): >1 = greater inhibition of CC chemokines, <1 = of CXC chemokines. Here is the method: To determine whether an agent inhibits a chemokine-induced activity, such as macrophage recruitment, varying amounts of the agent are mixed with cells in the presence of a known chemoattractant. […] Chemokine (such as MCP-1, MIP1α, IL8 or SDF-1α), at a concentration known to cause significant migration of THP-1 cells in the trans-well migration assay, is placed in the lower compartment (FIG. 1). […] After incubation, the cells are gently removed from the top of the filter with a pipette, 20 μl of 20 mM EDTA in simple PBS is added into each top well, and incubated for 20 minutes at 4° C. The filter is carefully flushed with media using a gentle flow, and removed. […] The media is carefully aspirated from each well, and the converted dye is solubilized by 20 μl of DMSO. Absorbance of converted dye is measured at a wavelength of 595 nm using an ELISA plate reader. The number of migrated cells in each well is then determined by interpolation of the standard curve (see also Imai et al., J. Biol. Chem., 272, 15036 (1997)). […] The framed filter was aligned with the holes in the corner of the filter frame and placed over the wells. Five×10^4 THP-1 cells in 25 μl of RPMI-1640 culture media were added to the upper compartment. Peptides were dissolved in Milli Q water and then serially diluted in culture medium. In most cases, the serially diluted peptides were added to the upper compartment of the chemotaxis chamber. […] After incubation, the cells were gently removed from the top of the filter with a pipette, 20 μl of 20 mM EDTA in PBS was added into each top well, and the mixture was incubated for 20 minutes at 4° C. The filter was then carefully flushed with media using a gentle flow, and removed. […] The media was carefully aspirated from each well, and the converted dye was solubilized by 20 μl of DMSO. Absorbance of converted dye was measured at a wavelength of 595 nm using an ELISA plate reader. […] Representative chemokines included a beta-chemokine (“CC”), MIP-1α, and two alpha-chemokines (“CXC”), IL-8 and SDF-1α. […]

Assay [3] relates to MCP-1 induced THP-1 migration. The assay is described as follows: Trans-well THP-1 migration assay, MCP-1 as chemoattractant. In kind it is cell-based, human. Particulars: for IC50: derivatives of leu4ile11peptide 3, read-out: MCP-1 inhibitory activity in the THP-1 transwell assay. Here is the method: (§1) FIG. 1 is a schematic of the trans-well migration assay. In most experiments, the peptide (wavy line) is added to the upper well with about 50,000 cells (O). The upper and lower wells are separated by a 5 μm or 8 μm pore size PVP-free membrane (- - - -). Chemokine (●) is added to the lower well. After 4 hours, the number of cells that have migrated through the membrane are measured (◯ in lower well).
To determine whether an agent inhibits a chemokine-induced activity, such as macrophage recruitment, varying amounts of the agent are mixed with cells in the presence of a known chemoattractant. For example, a range of known concentrations of an agent, e.g., a chemokine peptide, is incubated with a defined number (e.g., 10^4-10^6) of human THP-1 monocyte cells in individual wells of the top compartment of a trans-well plate. Chemokine (such as MCP-1, MIP1α, IL8 or SDF-1α), at a concentration known to cause significant migration of THP-1 cells in the trans-well migration assay, is placed in the lower compartment (FIG. 1). Cells are then incubated at 37° C. for a period sufficient to allow migration, e.g., 4 hours. After incubation, the cells are gently removed from the top of the filter with a pipette, 20 μl of 20 mM EDTA in simple PBS is added into each top well, and incubated for 20 minutes at 4° C. The filter is carefully flushed with media using a gentle flow, and removed. A standard curve consisting of a two-fold dilution series of THP-1 cells (in 29 μl) is prepared to accurately quantify the number of cells that have migrated. Migrated cells are stained with 3 μl of MTT stock dye solution which is added directly into each well (5 mg/ml in RPMI-1640 without phenol red, Sigma Chemical Co.) and incubated at 37° C. for 4 hours. The media is carefully aspirated from each well, and the converted dye is solubilized by 20 μl of DMSO. Absorbance of converted dye is measured at a wavelength of 595 nm using an ELISA plate reader. The number of migrated cells in each well is then determined by interpolation of the standard curve (see also Imai et al., J. Biol. Chem., 272, 15036 (1997)).
Any method suitable for counting cells can be used, for example, counting with a hemocytometer, incubation of the cells with MTT (see above), or FACS analysis. A negative control assay is also performed, using TGF-β or another non-chemokine chemoattractant (e.g., IL1β or TNFα). To assess whether the agent is cytotoxic, the same concentrations of agent are incubated with THP-1 cells. Agents which 1) are not cytotoxic at levels which inhibit migration, 2) are ineffective at inhibiting the negative control-induced migration, and 3) reduce or inhibit chemokine-induced THP-1 migration, are agents which fall within the scope of the invention.
For this assay, THP-1 cells were maintained at a density of 4×10^5 cells per ml in RPMI-1640 supplemented with 10% fetal calf serum+20 μM 2-mercaptoethanol. Chemotaxis was induced in a 96-well disposable chemotaxis chamber fitted with a […] polycarbonate filter (PVP free, ChemoTX, Neuroprobe Inc., Cabin John). Twenty-nine μl of chemoattractant (recombinant human chemokine; 50 ng/ml, i.e., 5.9 nM) or control (100 ng/ml TGFβ) was added to the lower compartment of each well. The framed filter was aligned with the holes in the corner of the filter frame and placed over the wells. Five×10^4 THP-1 cells in 25 μl of RPMI-1640 culture media were added to the upper compartment. Peptides were dissolved in Milli Q water and then serially diluted in culture medium. In most cases, the serially diluted peptides were added to the upper compartment of the chemotaxis chamber. The chamber was incubated at 37° C. in a humidified atmosphere of 5% CO2 for 4 hours.
After incubation, the cells were gently removed from the top of the filter with a pipette, 20 μl of 20 mM EDTA in PBS was added into each top well, and the mixture was incubated for 20 minutes at 4° C. The filter was then carefully flushed with media using a gentle flow, and removed. […]

The subject of assay [4] is IL8 induced THP-1 migration. The assay is described as follows: Trans-well THP-1 migration assay, IL8 as chemoattractant. Conditions: THP-1 migration. The assay is classed as cell-based, human. Here is the method:
as §1
(§2) To determine whether an agent inhibits a chemokine-induced activity, such as macrophage recruitment, varying amounts of the agent are mixed with cells in the presence of a known chemoattractant. For example, a range of known concentrations of an agent, e.g., a chemokine peptide, is incubated with a defined number (e.g., 10^4-10^6) of human THP-1 monocyte cells in individual wells of the top compartment of a trans-well plate. […] A standard curve consisting of a two-fold dilution series of THP-1 cells (in 29 μl) is prepared to accurately quantify the number of cells that have migrated. […] Absorbance of converted dye is measured at a wavelength of 595 nm using an ELISA plate reader. The number of migrated cells in each well is then determined by interpolation of the standard curve (see also Imai et al., J. Biol. Chem., 272, 15036 (1997)). […]

For assay [5], the system named is SDF-1α induced THP-1 migration. Briefly: Trans-well THP-1 migration assay, SDF-1α as chemoattractant. Particulars: THP-1 migration. In kind it is cell-based, human. Here is the method: as §1, §2

As for EICADPSEEWVQ [Ser7Glu8Glu9pep 3], in assay [1] (Table 7), the “DUFFY SELECTIVITY” value is 0.59. Besides, the “CC SPECIFICITY” value in assay [2] came to 1.6.
The matching figures for CADPKQKWVQ [Peptide 3[3-12]]: 1.21 and 1.2.
With “Leu4ile11peptide 3(3-12)[MCP-1]: leu4ile11 variant of peptide 3(3-12)[MCP-1] (CLDPKKEWIQ)”, the “affinity relative to peptide 3(1-12)[MCP-1]” value in assay [2] (in words) is reported as “higher affinity peptide analog”.
DYFETSSQCSKPGV [Pep2[MIP1α]]: in assay [1], the Kd (as a rule, the concentration at which binding is half-saturated) is > 50 µM. The “DUFFY SELECTIVITY (peptide 2 family)” value in assay [1] (Table 7, ka for binding to red blood cells divided by the ka for binding THP-1 cells) was >100^d.
Regarding EICADPKQKWIQ [Ile11peptide 3], in assay [2], the “selectivity ratio (CC versus CXC chemokines)” value (“selectivity ratio” for short) came out at 0.9 and the “CC SPECIFICITY” value stood at 0.9.
For the molecule APG [reference compound], the “inhibition of THP-1 cell migration induced by MCP-1, MIP1α, IL-8 and SDF1α, in words” value (“inhibition … IL-8 and SDF1α, in words” below) in assay [2] is recorded as “None of these significantly inhibited”.
“CQVWKQKPDAC [LRD-Cys13leu4ile11pep3[3-12]]”: the “DUFFY SELECTIVITY” value in assay [1] (Table 7) is listed as 4.59. Moreover, the IC50 in assay [3] was in the range of 0.2 to 0.4 µM.
Take KEN [cognate tripeptide from IL8]: the “inhibition of IL8, in words” value in assay [4] is “specific and potent inhibitor”. Further, in assay [2], the “CC SPECIFICITY” value is given as <0.1.
Turning to GGR [reference compound], the “inhibition … IL-8 and SDF1α, in words” value in assay [2] was “None of these significantly inhibited”.
For the molecule EICADPSQKWVQ [Ser7peptide 3], in assay [1] (Table 7), the “DUFFY SELECTIVITY” value is 2.00. For the same molecule, in assay [2], the “selectivity ratio” value turned out to be 0.5 and the “CC SPECIFICITY” value is 0.5.
Take EICLDPKQKWIQ [Leu4ile11peptide 3]: in assay [1], the “DARC binding, in words” value was “essentially no DARC binding capacity”. For the same molecule, in assay [3], the “concentrations inhibiting MCP1 induced migration” value is “around 1 μM”, the “potency as an inhibitor of MCP-1 signaling relative to peptide 3(1-12)[MCP-1]” value is on record as “approximately 5 fold” and the IC50 was in the range of 1 to 5 µM. Further, in assay [2], the “potency as an inhibitor of CC chemokines relative to peptide 3(1-12)[MCP-1]” value is “approximately 5 fold”, the “selectivity ratio” value stood at 2.0 and the “CC SPECIFICITY” value came to 2.0.
As for `CC[C@H](C)[C@H](NC(=O)[C@H](C)NC(=O)[C@H](CC(=O)O)NC(=O)[C@@H]1CCCN1C(=O)[C@H](CCC(N)=O)NC(=O)[C@H](C)N)C(=O)N[C@@H](CC(N)=O)C(=O)N[C@@H](C)C(=O)N1CCC[C@H]1C(=O)N[C@H](C(=O)N[C@H](C(=O)N[C@@H](CS)C(=O)N[C@@H](CS)C(=O)O)[C@@H](C)O)C(C)C` [Peptide 1] (H-AQPDAINAPVTCC-OH), the dissociation constant Kd in assay [1] was > 100 µM.
WIQ: in assay [2], the “CC SPECIFICITY” value was determined as 1.0.
Turning to KQKWVQ [Peptide 3[7-12]], the “DUFFY SELECTIVITY” value in assay [1] (Table 7) is given as 2.94. Also, the “DARC specificity ratio / Duffy selectivity” value in assay [1] (estimated ka for association with DARC divided by the ED50 for biological activity) is listed as “about 3.0”. Also, in assay [2], the “selectivity ratio” value turned out to be 1.1 and the “CC SPECIFICITY” value was found to be 1.0.
TTT [reference compound]: the “inhibition … IL-8 and SDF1α, in words” value in assay [2] is “None of these significantly inhibited”.
RGD [reference compound]: in assay [2], the “inhibition … IL-8 and SDF1α, in words” value was “None of these significantly inhibited”.
On to “-CQVWKQKPDA C- ([dC][dQ][dV][dW][dK][dQ][dK][dP][dD][dA][dC]; disulfide 1-11) [CRD-Cys13pep3[3-12]]”, for which the “DUFFY SELECTIVITY” value in assay [1] (Table 7) is reported as 8.82.
Take KLK [cognate tripeptide from SDF1]: the “inhibition of SDF1, in words” value in assay [5] is “specific and potent inhibitor”. The “CC SPECIFICITY” value in assay [2] is <0.1.
With EICADP [Peptide 3[1-6]], the “CC SPECIFICITY” value in assay [2] is 0.7.
`NCCCC[C@H](NC(=O)[C@H](CCC(N)=O)NC(=O)[C@@H](N)CCCCN)C(=O)O` [KQK]: the dissociation constant (Kd) in assay [1] was > 50 µM.
Take EICLDPKQKWVQ [Leu4peptide 3]: in assay [2], the “increase in potency as an inhibitor of CXC chemokines compared with peptide 3(1-12)[MCP-1]” value is listed as “approximately 4 fold”, the “selectivity ratio” value worked out at 0.37 and the “CC SPECIFICITY” value is 0.4.
